From PMC8971525, “A New Strategy for Multitarget Drug Discovery/Repositioning Through the Identification of Similar 3D Amino Acid Patterns Among Proteins Structures: The Case of Tafluprost and its Effects on Cardiac Ion Channels” (Frontiers in Pharmacology, 2022)

How the values were obtained:
[1] = target: T1, TASK-1 (Homo sapiens, UniProt O14649); assay: two-electrode voltage clamp in Xenopus oocytes, block of outward current; format: cell-based
T1 construct: gene KCNK3; human TASK-1 (KCNK3, NM_002246) cRNA expressed in Xenopus laevis oocytes

[2] = target: T2, NaV1.5 (Homo sapiens, UniProt Q14524); assay: two-electrode voltage clamp in Xenopus oocytes, block of inward current; format: cell-based
T2 construct: gene SCN5A; human Nav1.5 (hH1, M77235) cRNA expressed in Xenopus laevis oocytes
T2 sequence (Q14524 whole entry): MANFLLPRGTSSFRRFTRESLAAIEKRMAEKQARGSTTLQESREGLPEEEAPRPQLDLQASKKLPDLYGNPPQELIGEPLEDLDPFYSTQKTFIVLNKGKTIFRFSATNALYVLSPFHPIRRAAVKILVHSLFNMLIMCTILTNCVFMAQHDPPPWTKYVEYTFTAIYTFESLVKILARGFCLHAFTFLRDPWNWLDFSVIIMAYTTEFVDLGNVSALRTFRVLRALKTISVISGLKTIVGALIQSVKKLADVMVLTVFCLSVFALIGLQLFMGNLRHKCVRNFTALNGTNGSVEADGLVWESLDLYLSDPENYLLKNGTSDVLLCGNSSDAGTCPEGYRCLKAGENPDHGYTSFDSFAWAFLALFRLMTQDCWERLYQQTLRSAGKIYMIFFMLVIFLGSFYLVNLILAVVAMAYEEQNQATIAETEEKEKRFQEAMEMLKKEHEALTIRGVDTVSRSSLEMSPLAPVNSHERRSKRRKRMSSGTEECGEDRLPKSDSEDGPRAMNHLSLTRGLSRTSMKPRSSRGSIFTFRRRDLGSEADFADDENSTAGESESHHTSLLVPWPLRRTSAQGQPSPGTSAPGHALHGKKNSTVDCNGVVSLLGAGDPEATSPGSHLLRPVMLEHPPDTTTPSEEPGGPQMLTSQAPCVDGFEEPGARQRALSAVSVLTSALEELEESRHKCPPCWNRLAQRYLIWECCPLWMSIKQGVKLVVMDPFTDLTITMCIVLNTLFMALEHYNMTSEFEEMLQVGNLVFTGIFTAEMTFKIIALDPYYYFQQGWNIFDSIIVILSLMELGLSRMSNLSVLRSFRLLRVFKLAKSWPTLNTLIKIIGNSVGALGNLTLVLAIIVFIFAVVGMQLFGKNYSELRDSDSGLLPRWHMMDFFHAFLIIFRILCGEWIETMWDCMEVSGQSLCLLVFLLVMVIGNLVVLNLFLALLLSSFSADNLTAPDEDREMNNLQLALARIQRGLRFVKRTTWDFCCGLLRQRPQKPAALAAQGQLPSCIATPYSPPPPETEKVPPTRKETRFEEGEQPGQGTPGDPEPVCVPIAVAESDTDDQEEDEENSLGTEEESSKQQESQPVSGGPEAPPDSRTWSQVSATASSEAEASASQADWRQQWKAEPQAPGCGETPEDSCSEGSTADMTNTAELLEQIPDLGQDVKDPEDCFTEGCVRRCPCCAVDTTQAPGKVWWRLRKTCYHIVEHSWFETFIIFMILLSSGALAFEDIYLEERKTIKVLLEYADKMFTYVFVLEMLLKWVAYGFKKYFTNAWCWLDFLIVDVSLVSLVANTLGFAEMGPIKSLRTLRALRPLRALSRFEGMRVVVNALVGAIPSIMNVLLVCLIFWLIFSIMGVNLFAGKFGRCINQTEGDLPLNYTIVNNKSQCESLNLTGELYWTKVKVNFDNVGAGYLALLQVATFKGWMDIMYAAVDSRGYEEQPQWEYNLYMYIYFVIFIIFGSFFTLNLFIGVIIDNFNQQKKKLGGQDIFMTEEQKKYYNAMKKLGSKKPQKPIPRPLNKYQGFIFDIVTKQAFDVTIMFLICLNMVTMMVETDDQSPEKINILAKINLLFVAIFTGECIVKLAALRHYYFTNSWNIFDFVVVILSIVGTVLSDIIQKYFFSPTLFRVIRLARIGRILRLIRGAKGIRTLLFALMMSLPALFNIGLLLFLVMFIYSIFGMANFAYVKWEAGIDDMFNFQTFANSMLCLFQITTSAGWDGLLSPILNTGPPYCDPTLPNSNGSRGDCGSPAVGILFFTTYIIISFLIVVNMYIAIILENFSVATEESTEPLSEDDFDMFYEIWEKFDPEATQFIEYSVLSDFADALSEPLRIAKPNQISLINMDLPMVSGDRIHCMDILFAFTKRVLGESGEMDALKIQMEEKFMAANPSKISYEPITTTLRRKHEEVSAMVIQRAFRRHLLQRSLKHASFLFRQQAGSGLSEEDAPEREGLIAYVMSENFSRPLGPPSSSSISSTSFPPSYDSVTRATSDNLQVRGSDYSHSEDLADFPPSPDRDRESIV

T1 sequence (O14649 whole entry): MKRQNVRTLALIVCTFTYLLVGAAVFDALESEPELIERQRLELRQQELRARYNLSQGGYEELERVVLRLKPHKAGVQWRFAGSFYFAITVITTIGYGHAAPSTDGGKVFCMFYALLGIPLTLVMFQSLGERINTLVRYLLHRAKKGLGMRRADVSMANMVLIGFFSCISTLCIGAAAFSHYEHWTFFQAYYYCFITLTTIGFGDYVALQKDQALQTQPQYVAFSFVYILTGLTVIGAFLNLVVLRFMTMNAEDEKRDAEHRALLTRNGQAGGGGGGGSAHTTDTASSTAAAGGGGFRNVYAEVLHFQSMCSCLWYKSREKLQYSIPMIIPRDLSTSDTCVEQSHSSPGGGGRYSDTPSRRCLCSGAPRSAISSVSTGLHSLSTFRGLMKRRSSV

EC50 [1]: 0.186 ± 0.04 µM
SMILES: CC(C)OC(=O)CCC/C=C\C[C@@H]1[C@@H](/C=C/C(F)(F)COc2ccccc2)[C@H](O)C[C@@H]1O [tafluprost]
IC50 [2]: ~76 µM
